In patent publication US20240408145A1, “Gene Therapy” (Ospedale San Raffaele S.r.l., priority 2021, published 2024):
Entries after “also recorded” stand apart in the source; their conditions may differ.

Columns and labels:
[1] = test system: HDR-edited human HSPC clones; experiment: BAR-Seq clonal tracking of HDR-edited HSPCs; format: in vivo, NSG mice; settings: end of experiment; inhibitor at time of GE vs standard gene edited cells
Method: PCR amplicons for individual samples were generated by nested PCR using primers listed in Ferrari, S. et al., 2020, Nat Biotech 38(11):1298-1308 and starting from >50-100 ng of purified gDNA. The first PCR step was performed with GoTaq G2 DNA Polymerase (Promega) according to the manufacturer's instructions using the following amplification protocol: 95° C. for 5 min, (95° C. for 0.5 min, 60° C. for 0.5 min, 72° C. for 0.5 min)×20 cycles, 72° C. for 5 min. Forward primer was designed to bind donor template upstream the BAR sequence, while the reverse primer annealed outside the homology arm, thus amplifying 328 bp of the on-target integrated cassette. For targeted deep sequencing of the plasmid and AAV libraries, the reverse primer annealed to the homology arm. […] Library quality was assessed by Agilent Tapestation (Agilent Technologies). […]
BAR-Seq data were processed with TagDust57 (v.2.33) to identify and extract the BAR from each sample by taking advantage of the structural composition of the reads. […] BAR abundance was quantified by summing the number of identical sequences. […] BARs with a read count lower than three were discarded and the remaining set of BARs were identified as the valid BARs of this sample. […]

CB-derived HSPCs = experiment: Whole transcriptomic analysis with GSEA; format: cell-based, human; settings: CB HSPCs edited in presence of Anakinra vs not treated, 24 and 96 h
Method: Whole transcriptomic analysis was performed on a pool of HSPCs derived from five CB donors. All conditions were performed in triplicate. […] RNA was quantified with The Qubit 2.0 Fluorometer (ThermoFisher) and its quality was assessed by a 2100 Agilent Bioanalyser (Agilent Technologies). Minimum quality was defined as RNA integrity number (RIN) >8,300 ng of total RNA were used for library preparation with TruSeq Stranded Total RNA with Ribo-Zero Gold kit (Illumina) and sequenced on a NextSeq 500 (Illumina). Read quality was determined using FastQC and low-quality sequences were trimmed using Trimmomatic. RNA-seq data were aligned to the human reference genome (GRCh38/hg38) using both HISAT2 and STAR with standard input parameters. Gene counts were produced using Subread featureCounts against Genecode v26 or v31, considering results produced by both the aligners. After visual inspection of results, we continued the analysis using alignments achieved using HISAT, which provided more conservative alignments. […] Differential expression was determined considering only protein coding genes and correcting p-values using FDR.

human CD34+ HSPCs [2] = experiment: Senescence markers in HSPCs ex vivo (p16); format: cell-based; settings: mPB-derived HSPCs, 24 h and 96 h upon GE
IL1A, IL8, IL6, CCL2 = experiment: Inflammatory cytokine expression in edited HSPCs (qPCR); format: cell-based, human; settings: CB HSPCs, HS/AAV6; inhibitor at time of GE vs standard protocol
human CD34+ HSPCs [3] = experiment: Colony-forming unit cell (CFU-C) assay; format: cell-based
[4] = test system: BM-derived human CD34+ cells; experiment: CFU-C assay of CD34+ cells retrieved from bone marrow of primary recipients; format: cell-based; settings: 15-18 weeks, inhibitor at time of ex vivo GE vs standard protocol
human CD34+ HSPCs [5] = experiment: Apoptosis analysis of HSPCs (Annexin V, 7AAD); format: cell-based; settings: HSPCs edited with COMBO, 24 h upon GE
human CD34+ HSPCs [6] = experiment: Culture composition of HSPC subpopulations (flow cytometry); format: cell-based

Substance: Anakinra: recombinant and slightly modified form of the Human interleukin-1 receptor antagonist (IL-1Ra); SEQ ID NO: 3
- Number of dominant unique BARs in human BM-derived cells (polyclonal reconstitution) [1]: higher long-term polyclonal reconstitution
- GSEA normalized enrichment scores for inflammatory/TNFα dependent pathways, interferon responses, senescence categories (CB-derived HSPCs): negative and significantly high normalized enrichment scores (NES); also recorded: downregulated early and late upon Anakinra treatment
- Percentage of p16+ senescent cells in GFP+ HDR-edited cells (human CD34+ HSPCs [2]): partially mitigated by Anakinra treatment
- Relative expression of inflammatory cytokine genes (IL1A, IL8, IL6, CCL2) (IL1A, IL8, IL6, CCL2): downregulated 96 h upon Anakinra treatment
- Number of colonies (HSPC clonogenic potential) (human CD34+ HSPCs [3]; CB HSPCs, HS/AAV6, inhibitor at time of GE vs standard protocol, 24 h and 96 h post GE): significant increase in HSPC clonogenic potential; also recorded: strongly improved HSPC clonogenic potential in vitro; also recorded: strongly improved HSPC clonogenic potential ex-vivo
- Clonogenic potential (number of colonies) (human CD34+ HSPCs [3]; HSPCs edited with COMBO, 24 and 96 h): increase in the clonogenic potential of the cells
- Clonogenic potential of edited cells (human CD34+ HSPCs [3]; mPB-derived HSPCs, 24 and 96 h post GE): significantly improved the clonogenic potential of edited cells
- Number of colonies formed by BM-derived CD34+ cells [4]: higher clonogenic potential
- Apoptosis (human CD34+ HSPCs [5]): without overt apoptosis
- Culture composition of HSPC subpopulations (human CD34+ HSPCs [6]; CB HSPCs, 24 h and 96 h post gene editing ± Anakinra): No treatment skewed culture composition over time
- Culture composition skewing (human CD34+ HSPCs [6]; HSPCs edited with COMBO, 24 h and 96 h): without overt apoptosis (FIG. 17I) and culture composition skewing
- HSPC culture composition and differentiation (human CD34+ HSPCs [6]; mPB-derived HSPCs ± Anakinra): did not alter HSPC culture composition and differentiation
